# Laboratory results reported in ChEMBL document CHEMBL1144744, “Hypoxia-inducible factor-1 and nuclear factor-kappaB inhibitory meroterpene analogues of bakuchiol, a constituent of the seeds of Psoralea corylifolia” (Bioorg Med Chem Lett, 2008).
# How the values were obtained:
# [1] = test system: AGS; experiment: Cytotoxicity against human AGS cells by MTT assay; format: functional, cell-based
# [2] = target: Hypoxia inducible factors; HIF-1-alpha, HIF-2-alpha (Homo sapiens, UniProt Q16665+Q99814); experiment: Inhibition of hypoxia-induced HIF1 activation in human AGS cells by reporter gene assay; format: cell-based
# [3] = Inhibition of TNF-alpha-induced NF-kappaB activation in human HeLa cells; format: cell-based
# [4] = test system: HeLa; experiment: Cytotoxicity against human HeLa cells by MTT assay; format: functional, cell-based
Structure (SMILES),IC50 [2] [µM],IC50 [3] [µM],IC50 [1] [µM],IC50 [4] [µM]
C=C[C@@](C)(/C=C/c1ccc(O)cc1)CCC(O)C(C)(C)O (some centres not stated),> 50,> 50,> 50,> 50
CO[C@H]1/C=C\C=C(/C)C(=O)NC2=CC(=O)C(NCCN(C)C)=C(C[C@@H](C)C[C@H](OC)[C@H](O)[C@@H](C)/C=C(\C)[C@@H]1OC(N)=O)C2=O [ALVESPIMYCIN],0.0036,0.15,16,2.06
C=C[C@@](C)(/C=C/c1ccc(OC(C)(C)[C@@H](O)CC[C@@](C)(C=C)/C=C/c2ccc(O)cc2)cc1)CCC=C(C)C,> 50,12.2,> 50,> 50
C=C[C@@](C)(/C=C/c1ccc(O)cc1)CCC1OC1(C)C (some centres not stated),> 50,> 50,> 50,> 50

# The next lines start with results.
IC50 [2] [µM],IC50 [3] [µM],Structure (SMILES),IC50 [1] [µM],IC50 [4] [µM]
8.7,5.7,C=C[C@@](C)(/C=C/c1ccc(OC)cc1)CCC=C(C)C,55.8,> 50
5.7,5.7,C=C[C@@](C)(/C=C/c1ccc(OC(C)=O)cc1)CCC=C(C)C [ACETYLBAKUCHIOL],26.8,18.1
26.3,12.2,C=C[C@@](C)(/C=C/c1ccc(OCC)cc1)CCC=C(C)C,> 50,> 50
6.1,6.9,C=C[C@@](C)(/C=C/c1ccc(O)cc1)CCC=C(C)C [BAKUCHIOL],15.3,11
